The source of these data is patent publication US7462598B2, “Antimicrobial theta defensins, analogs thereof, and methods of use” (priority 2002, dated 2008).

Bridge positions count the residues as written; N and C are the ends. Peptide text beside a SMILES is read from it.

One data set concerns C. albicans 16820. The experiment in a line: Cell-suspension microbicidal assay (MMC). It counts as cell-based, Candida albicans. The following applies: for MMC, C. albicans: lowest concentration that reduced cell viability by 99.9%, 10 mM PIPES, 5 mM glucose, pH 7.4, 2 h 37° C. As to the method:
(§1) To test microbicidal activities, the activities of each peptide against S. aureus 502a, E. coli ML35, and C. albicans 16820 were assessed essentially as described in Example I with modifications to allow for simultaneous analysis of all twenty peptides. Briefly, two-fold serial dilutions of each peptide (in 0.01% acetic acid 0.062-8.0 μg/ml final concentrations) were mixed with 10 mM PIPES, pH 7.4, containing 5 mM glucose in sterile polystyrene 96-well plates (Corning, N.Y.). Aliquots of log-phase bacteria or yeast were added to a 2×10^6 CFU/ml final density as determined by A620. After 2 h incubation at 37° C., 15 μl of the incubation mixture was removed and serially diluted ten-fold from 1:10 to 1:10^6 in trypticase soy broth (bacteria) or Sabaraud dextrose broth (C. albicans). The diluted cell suspensions were grown 24-48 h at 37° C. until cell pellets were visible. Microbicidal activity was determined as absence of growth and was correlated to CFU/ml in control experiments where activity was determined in parallel by colony counting (see Example I). Absence of growth at the 1:10^3 dilution is equivalent to a 3-log reduction in microbial viability.
(§2) The microbicidal activities of each peptide against E. coli ML35, S. aureus 502a, and C. albicans 16820 were determined with cell-suspension microbicidal assays in 96-well plates (see Example II). Briefly, log-phase cells (2×10^6 CFU/ml final) were incubated with increasing concentrations of peptides (0-8 μg/ml final) in 50 μl of 10 mM PIPES, 5 mM glucose, pH 7.4, for 2 h at 37° C. Incubation mixtures were diluted 1:10 to 1:10^6 with trypticase-soy broth (bacteria) or Sabaraud dextrose broth (fungi) and incubated at 37° C. for 24-48 h until cell pellets were visible. Microbicidal activities (confirmed in control experiments as described in Example II) were determined as the absence of a cell pellet in the various dilutions. Peptide concentrations that caused ≧99.9% killing (absence of a cell pellet at 1:10^3 dilution) were taken as the minimum microbicidal concentrations (MMC).

Another data set concerns S. aureus 502a. The experiment in a line: Cell-suspension microbicidal assay (MMC). It counts as cell-based, Staphylococcus aureus. To be noted: for MMC, S. aureus: lowest concentration that reduced cell viability by 99.9%, 10 mM PIPES, 5 mM glucose, pH 7.4, 2 h 37° C. As for the experimental part:
as §1, §2

Data set [1] concerns S. aureus 502a, E. coli ML35, and C. albicans 16820. Briefly: Cell-suspension microbicidal assay, statements across the test organisms (lowest MMC, overall ranges). To be noted: peptide concentration that kill 99.9% of either S. aureus, E. coli, or C. albicans; lowest MMC value. It counts as cell-based. As to the method:
as §1, §2
(§3) A selectivity index (SI=H/M) was calculated as a ratio of a peptide concentration (μg/ml) that causes 3% hemolysis (H) obtained from a dose-dependent hemolysis plot over 0.3 to 3 μg/ml of each peptide in PBS and the lowest MMC value (M) for any of the three test microorganisms (see Example II; Table 2).

For data set [2], the system named is E. coli ML35. Briefly: Membrane permeabilization assay (ONPG hydrolysis). It is filed as cell-based, Escherichia coli. The following applies: rates at 1 μg/ml concentration of each peptide. As for the experimental part:
For the membrane permeabilization assay, the permeabilization of bacterial cytoplasmic membranes was determined by measuring hydrolysis of o-nitrophenyl-β-D-galactcpyranoside (ONPG) in E. coli ML35 (Sitaram et al., FEBS Lett. 303:265-268 (1992); Lehrer et al.,. J. Immunol. Methods 108:153-158 (1988)). Peptides dissolved in 5 μl of 0.01% acetic acid were two-fold serially diluted with 10 mM PIPES, pH 7.4, containing 3 mM ONPG, to final peptide concentrations of 0-8.0 μg/ml. Log-phase bacteria, prepared in PIPES buffer as described for the microbicidal assay (see Example I), were added to 1×10^6 CFU/ml final density in a final volume of 90 μl. ONPG hydrolysis was measured at 405 nm for 60 min using a SpectraMAX 190 plate reader and SOFTmaxPRO 3.1 (Molecular Devices Corp., CA). […]

Another data set relates to human erythrocytes. Briefly: Hemolysis assay. It is filed as cell-based. The following applies: for H: peptide concentration that causes 3% hemolysis, calculated from dose-dependent hemolysis plot over 0.3-3 μg/ml in PBS. As for the experimental part:
For the hemolysis assay, the hemolytic activity of each peptide was determined by the method of Tam et al. (Tam et al., Eur. J. Biochem. 267:3289-3300 (2000)). Blood was obtained from a healthy donor in accordance to a protocol approved by the Institutional Review Board. Normal human serum was prepared from the same individual and stored at −20° C. Red blood cells (RBC) were prepared from blood collected in EDTA. RBC were harvested at 234×g for 10 min, 22° C., washed four times with 10 mM sodium phosphate, 150 mM NaCl, pH 7.4 (PBS), containing 4 mM EDTA and resuspended in PBS without EDTA. Peptides dissolved in 10 μl 0.01% HOAc were diluted with PBS to final concentrations of 0.3-100 μg/ml. RBC were added to a 2% final density in 100 μl. Incubation mixtures were also prepared with 10% serum. After 1 h incubation at 37° C., the cell suspensions were centrifuged at 234×g for 10 min, 22° C. Fifty-μl samples of the supernatants were removed, and the absorbance at 405 nm (A) was measured. Hemolytic activity of each peptide was calculated relative to lysis by 1% NP-40 using the following formula:
as §3

Data set [3] has as its system E. coli ML35. The experiment in a line: Cell-suspension microbicidal assay (MMC). It is filed as cell-based, Escherichia coli. The following applies: for MMC, E. coli: lowest concentration that reduced cell viability by 99.9%, 10 mM PIPES, 5 mM glucose, pH 7.4, 2 h 37° C. As to the method:
as §1, §2

A further data set concerns white blood cells. Briefly: Cytokine-antibody array of supernatants of white blood cells (ex vivo LPS model). It counts as cell-based. The following applies: 18 h, relative to control supernatants. As for the experimental part: The anti-inflammatory properties of RTD-1 were evaluated by determining the relative levels of cytokines produced by stimulated white blood cells. Blood was obtained from healthy donors in accordance with institutional guidelines. Serum was prepared from the same donor following coagulation and high-speed centrifugation (12,000-15,000 ×g). White blood cells, (WBC) were prepared from EDTA anti-coagulated blood using an established protocol. WBC were suspended in RPMI 1640 (Gibco; Invitrogen, Carlsbad Calif.) containing 10% FBS and 1% autologous serum. Aliquots containing 2×10^6 cells were added to each well of a sterile 12-well plate, and cells were allowed to incubate for 18 h at 37° C. in a humidified incubator with 5% carbon dioxide. […] Cell-free supernatants were collected by centrifugation at 12,000×g and incubated with cytokine-antibody arrays per the manufacturer's protocol (RayBiotech; Norcross Ga.). The cytokines on each array were visualized with a chemi-luminescent kit (Pierce; Rockford Ill.) and enumerated by spot density analysis with ChemiImager 5.5 (Alpha Innotech; San Leandro Calif.).

Where [4] appears, read: LPS (100 ng/ml) + RTD-1 (100 ng/ml).
The mark [5] stands for this setting: carboxamide versus C-terminal acid of the same acyclic θ-defensin.

`CC[C@H](C)[C@@H]1NC(=O)[C@@H]2CSSC[C@H](NC(=O)[C@H](CCCNC(=N)N)NC(=O)[C@@H]3CSSC[C@H](NC1=O)C(=O)N[C@@H]([C@@H](C)O)C(=O)N[C@@H](CCCNC(=N)N)C(=O)NCC(=O)N[C@@H](Cc1ccccc1)C(=O)N3)C(=O)N[C@@H](CC(C)C)C(=O)N[C@H]1CSSC[C@H](NC(=O)[C@H](C(C)C)NC(=O)CNC(=O)[C@H](CCCNC(=N)N)NC(=O)[C@H](CCCNC(=N)N)NC1=O)C(=O)N[C@@H](CCCNC(=N)N)C(=O)N2` [RTD-1] (cyclo(GFCRCLCRRGVCRCICTR); disulfide 3-16, 5-14, 7-12): in the data set with C. albicans 16820, the “MMC, C. albicans” value came out at 1.0 µg/mL. The “MMC, S. aureus” value in the data set with S. aureus 502a was found to be 1.0 µg/mL. This compound also gave a M in data set [1] of 1 µg/mL. Moreover, in the data set with E. coli ML35 [2], the ONPG hydrolysis is reported as 9.0 (A405/sec) · 10^−5. Also, the H with human erythrocytes is 5.5 µg/mL. Further, in the data set with E. coli ML35 [3], the “MMC, E. coli” value came out at 2.0 µg/mL. In the data set with white blood cells (setting [4]), the ENA-78 fold increase amounted to 10 fold, the GCSF fold increase is given as 1 fold, the GM-CSF fold increase is given as 1 fold and the GRO fold increase was 19 fold. Also, in the data set on white blood cells (setting [4]), the IFN-γ fold increase came out at 60 fold, the IL-1β fold increase was 118 fold, the IL-2 fold increase stood at 1 fold and the IL-5 fold increase is listed as 118 fold. Also, in the data set on white blood cells (setting [4]), the IL-6 fold increase amounted to 2 fold, the IL-7 fold increase was found to be 1 fold, the IL-10 fold increase is listed as 2 fold and the MCP-2 fold increase was 4 fold. Further, in the data set with white blood cells (setting [4]), the MCSF fold increase is recorded as 1 fold, the MDC fold increase came to 4 fold, the MIP-1-δ fold increase was 1 fold and the RANTES fold increase is 237 fold. Further, in the data set on white blood cells (setting [4]), the SCF fold increase was 1 fold, the SDF-1 fold increase is given as 178 fold, the TARC fold increase is reported as 60 fold and the TGF-β1 fold increase amounted to 1 fold. The TNF-α fold increase in the data set with white blood cells (setting [4]) is given as 1 fold. In the data set on white blood cells (stimulus alone, 100 ng/ml), this compound yielded an ENA-78 fold increase of 1 fold, a GCSF fold increase of 1 fold, a GM-CSF fold increase of 1 fold and a GRO fold increase of 4 fold. Besides, in the data set with white blood cells (stimulus alone, 100 ng/ml), the IFN-γ fold increase is listed as 1 fold, the IL-1β fold increase came to 178 fold, the IL-2 fold increase is reported as 1 fold and the IL-5 fold increase stood at 60 fold. In the data set with white blood cells (stimulus alone, 100 ng/ml), the IL-6 fold increase amounted to 2 fold, the IL-7 fold increase is reported as 1 fold, the IL-10 fold increase turned out to be 1 fold and the MCP-2 fold increase stood at 2 fold. In the data set with white blood cells (stimulus alone, 100 ng/ml), this compound gave an MCSF fold increase of 60 fold, an MDC fold increase of 2 fold, an MIP-1-δ fold increase of 1 fold and an RANTES fold increase of 1 fold. Moreover, in the data set with white blood cells (stimulus alone, 100 ng/ml), the SCF fold increase is 1 fold, the SDF-1 fold increase came to 1 fold, the TARC fold increase came out at 1 fold and the TGF-β1 fold increase amounted to 1 fold. In the data set with white blood cells (stimulus alone, 100 ng/ml), the TNF-α fold increase came to 1 fold.
Consider `CC[C@H](C)[C@@H]1NC(=O)[C@@H]2CSSC[C@H](NC(=O)[C@H](CCCNC(=N)N)NC(=O)[C@@H](NC(=O)[C@H](Cc3ccccc3)NC(=O)CN)CSSC[C@@H](C(=O)N[C@H](C(=O)N[C@@H](CCCNC(=N)N)C(N)=O)[C@@H](C)O)NC1=O)C(=O)N[C@@H](CC(C)C)C(=O)N[C@H]1CSSC[C@H](NC(=O)[C@H](C(C)C)NC(=O)CNC(=O)[C@H](CCCNC(=N)N)NC(=O)[C@H](CCCNC(=N)N)NC1=O)C(=O)N[C@@H](CCCNC(=N)N)C(=O)N2` [aRTD-1-NH] (H-GFCRCLCRRGVCRCICTR-NH2; disulfide 3-16, 5-14, 7-12; N-terminus assumed), for which the “fold higher potency against C. albicans than the peptide acid analog” value in the data set on C. albicans 16820 (setting [5]) is recorded as 4 fold. Besides, the “MMC, C. albicans” value with C. albicans 16820 came to 1.0 µg/mL. Further, the “fold reduction of staphylocidal potency relative to the peptide acid analog” value in the data set with S. aureus 502a (setting [5]) is on record as “no effect”. In addition, the “MMC, S. aureus” value in the data set on S. aureus 502a turned out to be 5.0 µg/mL. This compound also displayed a M in data set [1] of 1 µg/mL. The ONPG hydrolysis with E. coli ML35 [2] is 8.8 (A405/sec) · 10^−5. Further, the H in the data set with human erythrocytes was 8.8 µg/mL. Further, the “fold higher potency against E. coli than the peptide acid analog” value in the data set on E. coli ML35 [3] (setting [5]) was 4 fold. Besides, the “MMC, E. coli” value with E. coli ML35 [3] stood at 2.0 µg/mL.
In the case of `CC(C)C[C@@H]1NC(=O)[C@H](CCCNC(=N)N)NC(=O)CNC(=O)CNC(=O)[C@H](CCCNC(=N)N)NC(=O)[C@H](CCCNC(=N)N)NC(=O)CNC(=O)[C@H](C(C)C)NC(=O)[C@@H]2CSSC[C@H](NC1=O)C(=O)N[C@@H](Cc1ccc(O)cc1)C(=O)N[C@H]1CSSC[C@H](NC(=O)[C@H](Cc3ccccc3)NC(=O)[C@H](CCCNC(=N)N)NC(=O)[C@H](CCCNC(=N)N)NC(=O)[C@H](CCCNC(=N)N)NC1=O)C(=O)N[C@@H](C(C)C)C(=O)N2` [cPG-1] (cyclo(GGRLCYCRRRFCVCVGRR); disulfide 5-14, 7-12), the “fold lower candidacidal potency than native PG-1” value with C. albicans 16820 (from MMC, Table 2) was 3 fold. Also, the “MMC, C. albicans” value in the data set on C. albicans 16820 was 2.5 µg/mL. Moreover, the “fold lower staphylocidal potency than native PG-1” value in the data set on S. aureus 502a (from MMC, Table 2) amounted to 5 fold. The “MMC, S. aureus” value in the data set on S. aureus 502a worked out at 2.0 µg/mL. This compound had a M in data set [1] of 1 µg/mL. The ONPG hydrolysis with E. coli ML35 [2] is 11.0 (A405/sec) · 10^−5. Also, in the data set on human erythrocytes, the hemolysis is 40-50%. Also, the “MMC, E. coli” value with E. coli ML35 [3] was found to be 1.0 µg/mL.
